Source: publication PMC12656566, “Toxicokinetic Characterization of MDM Hydantoin via Stable Metabolite DMH: Population Modeling for Predicting Dermal Formaldehyde Formation” (Toxics, 2025)
Where “and” joins values, the source holds several entries; their conditions need not be identical. Equal values may be shown once. Read-outs that look alike come from different tables or passages of the source.

Experiment: Toxicokinetics after intravenous injection of MDMH or DMH (plasma, LC-MS/MS, non-compartmental analysis)
Assay type: in vivo
Details: rats; for half-life / clearance / Vd / AUC(0-t) / C0 / AUC(0-inf): male, Sprague-Dawley, rat; for half-life / clearance / Vd: plasma; for half-life: iv; for Vd: read-out: Vz; for AUC(0-inf): read-out: AUCinfinity
Procedure: An API 4000 LC-MS/MS system (Applied Biosystems/MDS Sciex, Foster City, CA, USA) coupled with an Agilent 1100 HPLC (Agilent Technologies, Santa Clara, CA, USA) was used for determination of MDMH and DMH in rat plasma. The analytes were separated on a Synergi Fusion-RP 80 Å (150 × 2.0 mm, i.d., 4 µm;) with a Security Guard™ Cartridge AJ0-7556 (Phenomenex, Torrance, CA, USA), and the column oven temperature was maintained at 30 °C. An isocratic solvent system of distilled water and methanol (80:20, v/v) was used with a runtime of 7 min. The injection volume was 10 µL, and the flow rate was maintained at 0.2 mL/min.
For plasma sample preparation, formic acid was immediately added to blood samples upon collection to achieve a final concentration of 0.5% to prevent potential enzymatic degradation of MDMH, and all sample preparation procedures were conducted at ≤4 °C to minimize temperature-dependent decomposition of the analytes. For analysis, 50 μL of internal standard solution and 100 μL of methanol containing 0.5% formic acid (as precipitating solvent) were added to 50 μL of plasma, followed by vortex-mixing for 2 min. After centrifugation at 21,206× g for 10 min, 40 μL of supernatant was mixed with 160 μL of 0.5% formic acid in distilled water, and 10 μL was injected into the LC-MS/MS system.
All animal care and experiments were conducted to evaluate the toxicokinetics of MDMH and DMH according to the Guidelines for the Care and Use of Animal approved by the Ethics Committee for Treatment of Laboratory Animal at Daegu Catholic University (CUD-2019-020). To evaluate the toxicokinetics of MDMH and DMH in rats after intravenous injection (IV) or transdermal application (TD). Male Sprague-Dawley rats (9 weeks, body weight 260–310 g) (Hyochang Science Co., Daegu, Republic of Korea) were kept in plastic cages and fed regularly with water and feed. Rats were acclimated for a minimum of 1 week prior to the experiment under conditions keeping a 12 h light-dark cycle, a temperature of 23 ± 2 °C, and a relative humidity of 50 ± 10%. The rats were cannulated using polyethylene tubing (0.58 mm i.d., 0.96 mm o.d., Natsume, Tokyo, Japan) in the jugular vein after intraperitoneal injection at a dose of 0.9 mL/kg of Zoletil 50 (Virbac, Carros, France).
For IV injection, MDMH or DMH was dissolved in distilled water, respectively, and the dose was 50 or 10 mg/kg, respectively. Blood samples were collected via the jugular vein in the MDMH administration group at 0, 0.5, 1, 1.5, 2, 2.5, 3, 5, 10, and 15 min and 1, 2, 4, 8, 12, and 24 h (16 points/head), and in the DMH administration group at 0, 2, 5, 10, 15, 30 min and 1, 2, 4, 8, 12, and 24 h (12 points/head). Plasma samples were harvested by centrifugation of obtained blood for 10 min at 4000× g, and stored at −20 °C until analysis.
The toxicokinetic parameters were calculated by standard non-compartmental analysis using the non-linear least squares regression program Phoenix™ WinNonlin® 6.1 (Pharsight, Cary, NC, USA).
The non-compartmental toxicokinetic parameters included terminal half-life (t1/2), area under the plasma concentration versus time curve from time zero to the last observation time point (AUClast) and to infinity (AUCinfinity), volume of distribution (Vz), and systemic clearance (CL). The maximum plasma concentration (Cmax) and the time to reach Cmax (Tmax) were obtained directly from the observed data. Absolute bioavailability (F) was estimated as the ratio of the dose-normalized AUCinfinity of MDMH and DMH following TD application compared to IV injection. The fraction metabolized (Fm) was calculated as the ratio of metabolite AUC to parent AUC after correction for molecular weight differences, accounting for the stoichiometric conversion relationship:(1) Fm=AUCDMH·MWMDMH/AUCMDMH·MWDMH where MWMDMH = 158.16 g/mol and MWDMH = 128.13 g/mol. […]

[1] = DMH in plasma after IV injection of DMH 10 mg/kg, n = 5
[2] = DMH after IV injection of DMH 10 mg/kg, n = 5
[3] = MDMH after IV injection of MDMH 50 mg/kg, n = 5
[4] = MDMH in plasma after IV injection of MDMH 50 mg/kg, n = 5

Structure (SMILES) | duration of initial distribution phase (alpha phase) (DMH after direct intravenous administration of DMH) | t1/2 [1] | half-life (10 mg/kg, DMH after IV injection of DMH 10 mg/kg, read-out: t1/2 (hour equivalent)) | half-life (10 mg/kg, DMH in plasma after IV injection of DMH 10 mg/kg, n = 5, read-out: t1/2) | clearance [2] | Vd [2] | AUC(0-t) [1] | C0 [1] | AUC(0-inf) [1] | Fm to DMH (fraction of MDMH metabolized to DMH) (IV injection of MDMH 50 mg/kg, AUC ratio adjusted for molecular weight) | time until parent compound plasma concentrations reached below the quantification limit (MDMH after i.v. injection of MDMH) | half-life (50 mg/kg, MDMH after IV injection of MDMH 50 mg/kg, read-out: t1/2 (hour equivalent)) | half-life (50 mg/kg, MDMH in plasma after IV injection of MDMH 50 mg/kg, n = 5, mean ± S.D., read-out: t1/2) | clearance [3] | Vd [3] | AUC(0-t) [4] | C0 [4] | AUC(0-inf) [4]
CC1(C)NC(=O)NC1=O [DMH, 5,5-dimethylhydantoin] | approximately 30 min | 3.0212 ± 0.5513 h | 3.02 h | 3.02 ± 0.55 h | 4 mL/min/kg | 1 ± 0.47 L/kg | 47100 ± 29900 ng·h/mL | 26.9 ± 18.3 µg/mL | 55000 ± 36800 ng·h/mL |  |  |  |  |  |  |  |  | 
CC1(C)C(=O)NC(=O)N1CO [MDMH, 1-(Hydroxymethyl)-5,5-dimethylhydantoin] |  |  |  |  |  |  |  |  |  | 97.6 ± 9.6% and 97.59 ± 9.64% | ≤ 5 min | 0.007 h | 0.00667 ± 0.00167 h | 1570 mL/min/kg | 0.84 ± 0.04 L/kg | 570 ± 190 ng·h/mL | 77.9 ± 28.1 µg/mL | 580 ± 180 ng·h/mL
